From patent publication US6989140B2, “Methods for cancer imaging” (Threshold Pharmaceuticals, Inc., priority 2001, dated 2006)

What was measured:
[1] = Solubility of the isolated conjugate in methanol and water; format: physicochemical; conditions: isolated product after preparative TLC
Description: More particularly, 2.2 mg (4 micromoles) of 6-((4,4-difluoro-5,7-dimethyl-4-bora-3a,4a-diaza-s-indacene-3-propionyl)amino)hexanoic acid, succinimidyl ester was dissolved in 0.3 ml of DMF followed by the addition of 6 mg (28 micromoles) of glucosamine HCL dissolved in 0.3 ml of water and 3.9 microliters (28 micromoles) of triethyl amine. The reaction was stirred for 24 hrs at room temperature, evaporated under reduced pressure, and dissolved in a minimum of methanol. This solution was spread on a preparative TLC plate (silica), dried, and developed with 2.5% water in acetonitrile. The plate was then dried and the product visualized with a UV light.
About 4 mg (4.8 micromoles) of Texas Red®-X, succinimidyl ester *single isomer* (816.94 MW, Molecular Probes, T-20175) were dissolved in 1.2 ml of methanol and combined with 4 mg (18 micromoles) of glucosamine HCl (Sigma) in 600 microliters of water. About 2.5 microliters (18 micromoles) of triethylamine were then added. The reaction was stirred overnight at 20° C. and then evaporated under reduced pressure. The gum was dissolved in methanol and spread on a preparative TLC plate (silica), dried, and developed with 10% water in acetonitrile. The plate was then dried and the product visualized with a UV light. […] B. Synthesis of 5-(and 6) Carboxynaphtofluorescein Glucosamine Conjugate [drawing 12]
About 8.3 mg (14 micromoles) of 5-(and-6)-carboxynaphthofluorescein, succinimidyl ester *mixed isomers* (MW 573.51, Molecular Probes, C-653) were dissolved in 2 ml of DMF, and 10 mg (46 micromoles) of glucosamine HCl (Sigma) in 1 ml of water was added. About 5.8 microliters (46 micromoles) of triethylamine were then added. The reaction was stirred overnight at 20° C. and then evaporated under reduced pressure. The gum was dissolved in 25% water in methanol and spread on a preparative TLC plate (silica), dried, and developed with 10% water in acetonitrile. The plate was then dried and the product visualized with a UV light. […] C. Synthesis of Glucosamine N-Methylanthranilamide Conjugate [drawing 13]

[2] = tested on: Raji lymphoma cells; test: 2-NBDG uptake in Raji lymphoma cells versus peripheral blood white cells (PBMC); format: cell-based; conditions: Raji lymphoma cells vs PBMC; 200 uM; 40 min; 37° C.; fluorescence plate reader (FIG. 2)
Description: Raji cells from culture one t-75 flask. Peripheral blood white cells from Stanford Blood Bank. Leukocytes were further separated by Ficoll separation (twice). These cells are referred to as PBMC (peripheral blood mononuclear cells). Phosphate-buffered saline. 2-NBDG, 0.1 M in water.
Culture medium with cells (either Raji or PBMC, 15 mL) were centrifuged for 10 min at 800×g. The pellet of cells was resuspended in PBS and centrifuged for 10 min at 800×g, and the resulting pellet was resuspended in 1.5 mL PBS. Cells were counted and adjusted to 1×10^6 per mL for both. Aliquots (100 uL) were placed into each of 2 tubes for each cell type, and the tubes were incubated at 37° C. for 15 min. The fluorescent deoxyglucose conjugate 2-NBDG was added to each tube to provide a concentration of 200 uM. At 40 min, the tubes were removed from the 37° C. bath and immediately placed on ice. The cells were washed twice with PBS and resuspended in 100 uL of PBS. A 20 uL aliquot was placed in each of 5 wells of an LJL 96-well plate, and fluorescence was counted by a LJL plate reader.

SMILES | solubility in methanol [1] | solubility in water [1] | uptake by a cancer cell as compared to a normal cell [2]
O=C(NC1C(O)OC(CO)C(O)C1O)c1ccc(C(=O)O)c(-c2c3ccc4cc(O)ccc4c3oc3c2ccc2cc(=O)ccc23)c1 (centres unmarked) | soluble | sparingly soluble | –
O=C[C@H](Nc1ccc([N+](=O)[O-])c2nonc12)[C@@H](O)[C@H](O)[C@H](O)CO [2-NBDG, 2-(N-(7-nitrobenz-2-oxa-1,3-diazol-4-yl)amino)-2-deoxyglucose] | – | – | preferred uptake
O=C(CCCCCNS(=O)(=O)c1ccc(C2=c3cc4c5c(c3Oc3c2cc2c6c3CCCN6CCC2)CCC[N+]=5CCC4)c(S(=O)(=O)[O-])c1)NC1C(O)OC(CO)C(O)C1O (single isomer, unassigned) [Texas Red Glucosamine Conjugate] | soluble | sparingly soluble | –
